Paper PMC6085350, “Small molecule inhibitors of RAS-effector protein interactions derived using an intracellular antibody fragment” (Nature Communications, 2018)

Biological target: T1, KRAS^G12V-GppNHp (Homo sapiens, UniProt P01116, G12V)
T1 construct: made in house; host or cells: E. coli (pGEX-2T; strain named only for the HRAS plasmids)
Test: SPR binding to KRAS G12V-GppNHp
Conditions: 100 μM, run in triplicate
Description: A BIAcore T100 (GE Healthcare) was used to screen the fragment library for RAS binders. A polyclonal goat anti-GST antibody (GE Healthcare) was immobilized on a CM5 sensor chip (GE Healthcare) by the amine coupling method. To immobilize the antibody on CM5 chip, the chip was first activated by injecting 100 µl mixture of 0.2 M EDC (N-ethyl-N-(dimethylaminopropyl) carbodiimide hydrochloride) and 0.05 M NHS (N-hydroxysuccinimide) at 10 µl/min flow rate. Furthermore, 100 µg/ml anti-GST antibody in 10 mM sodium acetate, pH 5.0 was injected at 5 µl/min for 900 s and immobilized until 20,000 ~ 25,000 RU. After immobilization the chip was immediately inactivated by injecting 1 M ethanolamine, pH 8.5 at 10 µl/min for 600 s. The chip was kept running in the HBS buffer (GE Healthcare) comprising 10 mM HEPES, pH 8.0, 150 mM NaCl. Of all, 5 µg/ml recombinant GST, GST-HRAS^G12V-GTPγS or GST-HRAS^G12V-GDP proteins were injected into flow cell Fc4, Fc2 and Fc3, respectively for trapping through the immobilized anti-GST antibody. The GST-HRAS^G12V-GTPγS, GST-KRAS^G12V-GppNHpp, or GST-HRAS^G12V-GDP proteins were injected at 5 µl/min for 900 s and usually reached approximately 2000–2500 RU. The GST was injected at same flow rate until about 1200–1350 RU which is 0.54 times less than the GST-HRAS^G12V-GTPγS or GST-HRAS-GDP capture amounts, taking into consideration relative molecular weights (GST, 26KDa, GST-RAS, 48KDa, respectively). Before fragment library screening, the running buffer was replaced by 20 mM Tris, pH 8, 150 mM NaCl, 5 mM MgCl2, 5% DMSO. DMSO solvent correction curves were generated by injecting the running buffers with serial concentrations of DMSO ranging from 4.5 to 6%. […] The individual compounds were injected at 30 µl for 60 s at 30 µl/min flow rate over flow cells Fc1, Fc2, Fc3 and Fc4. The captured GST and GST-RAS were removed from the chip by rinsing with 40 µl 10 mM glycine-HCl, pH 2.1 at 20 µl/min flow rate after every 48 compounds sequential injection. The chip was regenerated by injecting new GST and GST-RAS proteins as described above.

T1 sequence (P01116 1-188 isoform P01116-2 G12V): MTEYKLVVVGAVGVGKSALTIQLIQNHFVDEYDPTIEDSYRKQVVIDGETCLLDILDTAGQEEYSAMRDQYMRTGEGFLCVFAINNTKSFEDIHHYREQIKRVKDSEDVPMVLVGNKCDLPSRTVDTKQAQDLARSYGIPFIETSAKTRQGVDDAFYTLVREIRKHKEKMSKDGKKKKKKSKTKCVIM

O=C(NCC1COc2ccccc2O1)c1ccco1 (stereo not shown) [Abd-2] was tested, and the “binding to KRAS^G12V-GppNHp (SPR)” value was “binds”.
